Tested on: MV-4-11 cells
Assay: Gene expression microarray analysis (Affymetrix PrimeView) and GSEA
Type: cell-based, human
Design: RFU PODN (11730768_x_at) / Fold change /veh PODN (11730768_x_at) / RFU LINC00158 (11744669_a_at) / Fold change /veh LINC00158 (11744669_a_at) / RFU DUSP10 (11751237_a_at) / Fold change /veh DUSP10 (11751237_a_at) / RFU ID3 (11757404_x_at) / Fold change /veh ID3 (11757404_x_at) / RFU PLEKHG5 (11737974_s_at) / Fold change /veh PLEKHG5 (11737974_s_at) / RFU LRRC4B (11730491_at) / Fold change /veh LRRC4B (11730491_at) / RFU GIMAP4 (11747438_a_at) / Fold change /veh GIMAP4 (11747438_a_at) / RFU KRT8 (11758183_x_at) / Fold change /veh KRT8 (11758183_x_at) / RFU CNN1 (11734310_a_at) / Fold change /veh CNN1 (11734310_a_at) / RFU VPS37D (11726825_at) / Fold change /veh VPS37D (11726825_at) / RFU C10orf10 (11716522_x_at) / Fold change /veh C10orf10 (11716522_x_at) / RFU KIR2DL2 /// KIR2DL4 /// KIR2DL5A /// KIR2DL5B /// KIR2DS1 /// KIR2DS2 /// KIR2DS3 /// KIR2DS4 /// KIR3DL3 /// KIR3DL3 /// KIR3DS1 (11738374_at) / Fold change /veh KIR2DL2 /// KIR2DL4 /// KIR2DL5A /// KIR2DL5B /// KIR2DS1 /// KIR2DS2 /// KIR2DS3 /// KIR2DS4 /// KIR3DL3 /// KIR3DL3 /// KIR3DS1 (11738374_at) / RFU C1QL1 (11718748_at) / Fold change /veh C1QL1 (11718748_at) / RFU TMPRSS4 (11747572_a_at) / Fold change /veh TMPRSS4 (11747572_a_at) / RFU HAMP (11756126_x_at) / Fold change /veh HAMP (11756126_x_at) / RFU RNFT2 (11725882_a_at) / Fold change /veh RNFT2 (11725882_a_at) / RFU NR4A2 (11747474_a_at) / Fold change /veh NR4A2 (11747474_a_at) / RFU ABCC12 (11746883_a_at) / Fold change /veh ABCC12 (11746883_a_at) / RFU TMEM136 (11760407_x_at) / Fold change /veh TMEM136 (11760407_x_at) / RFU CLDN22 /// WWC2 (11732394_at) / Fold change /veh CLDN22 /// WWC2 (11732394_at) / RFU HLA-DPB1 (11760878_x_at) / Fold change /veh HLA-DPB1 (11760878_x_at) / RFU SPINT1 (11716480_a_at) / Fold change /veh SPINT1 (11716480_a_at) / RFU GAP43 (11754022_s_at) / Fold change /veh GAP43 (11754022_s_at) / RFU A4GNT (11735810_at) / Fold change /veh A4GNT (11735810_at) / RFU PRB3 (11715151_x_at) / Fold change /veh PRB3 (11715151_x_at) / RFU TUBB4B (11761932_at) / Fold change /veh TUBB4B (11761932_at) / RFU CAPN14 (11732068_a_at) / Fold change /veh CAPN14 (11732068_a_at) / RFU TMCC2 (11721928_a_at) / Fold change /veh TMCC2 (11721928_a_at) / RFU IRGQ (11745062_a_at) / Fold change /veh IRGQ (11745062_a_at) / RFU FAM174B (11720279_a_at) / Fold change /veh FAM174B (11720279_a_at) / RFU TMPRSS4 (11748680_a_at) / Fold change /veh TMPRSS4 (11748680_a_at) / RFU FAM212B (11763350_a_at) / Fold change /veh FAM212B (11763350_a_at) / RFU PLEKHG5 (11743358_a_at) / Fold change /veh PLEKHG5 (11743358_a_at) / RFU ZSCAN30 (11745921_a_at) / Fold change /veh ZSCAN30 (11745921_a_at) / RFU CMKLR1 (11741424_a_at) / Fold change /veh CMKLR1 (11741424_a_at) / RFU LOC101060620 /// MAPK8IP1 (11723275_at) / Fold change /veh LOC101060620 /// MAPK8IP1 (11723275_at) / RFU SPTSSB (11747773_x_at) / Fold change /veh SPTSSB (11747773_x_at) / RFU PRSS12 (11739890_at) / Fold change /veh PRSS12 (11739890_at) / RFU BIN1 (11741810_x_at) / Fold change /veh BIN1 (11741810_x_at) / RFU WNT11 (11732464_a_at) / Fold change /veh WNT11 (11732464_a_at) / RFU C10orf10 (11716521_a_at) / Fold change /veh C10orf10 (11716521_a_at) / RFU C5orf56 (11738089_at) / Fold change /veh C5orf56 (11738089_at) / RFU CYB561 (11721691_x_at) / Fold change /veh CYB561 (11721691_x_at) / RFU ANKRD19P (11752326_a_at) / Fold change /veh ANKRD19P (11752326_a_at) / RFU OR2T12 /// OR2T33 /// OR2T8 (11738714_s_at) / Fold change /veh OR2T12 /// OR2T33 /// OR2T8 (11738714_s_at) / RFU VCAN (11748164_a_at) / Fold change /veh VCAN (11748164_a_at) / RFU JSRP1 (11732532_at) / Fold change /veh JSRP1 (11732532_at) / RFU KRTAP10-11 (11738290_x_at) / Fold change /veh KRTAP10-11 (11738290_x_at) / RFU MYO3A (11730013_a_at) / Fold change /veh MYO3A (11730013_a_at) / RFU EBF3 (11725865_a_at) / Fold change /veh EBF3 (11725865_a_at) / RFU CAMK2N1 (11719241_x_at) / Fold change /veh CAMK2N1 (11719241_x_at) / RFU C5orf56 (11738088_a_at) / Fold change /veh C5orf56 (11738088_a_at) / RFU OLFML3 (11715873_a_at) / Fold change /veh OLFML3 (11715873_a_at) / RFU LOC100653217 /// NTM (11731650_a_at) / Fold change /veh LOC100653217 /// NTM (11731650_a_at) / RFU MAPK11 (11762145_a_at) / Fold change /veh MAPK11 (11762145_a_at) / RFU FIZ1 (11724087_x_at) / Fold change /veh FIZ1 (11724087_x_at) / RFU OASL (11726364_x_at) / Fold change /veh OASL (11726364_x_at) / RFU SOX15 (11748057_x_at) / Fold change /veh SOX15 (11748057_x_at) / RFU CD79A (11719716_a_at) / Fold change /veh CD79A (11719716_a_at) / RFU HIST1H1D (11736915_at) / Fold change /veh HIST1H1D (11736915_at) / RFU CASKIN2 (11723855_a_at) / Fold change /veh CASKIN2 (11723855_a_at) / RFU LOC730098 (11760151_x_at) / Fold change /veh LOC730098 (11760151_x_at) / RFU OR4N2 (11742367_at) / Fold change /veh OR4N2 (11742367_at) / RFU PRRT2 (11749266_a_at) / Fold change /veh PRRT2 (11749266_a_at) / RFU SNX32 (11753110_a_at) / Fold change /veh SNX32 (11753110_a_at) / RFU CDHR5 (11726645_a_at) / Fold change /veh CDHR5 (11726645_a_at) / RFU RCAN1 (11760418_a_at) / Fold change /veh RCAN1 (11760418_a_at) / RFU FAM167A (11723789_a_at) / Fold change /veh FAM167A (11723789_a_at) / RFU FAM26E (11764081_at) / Fold change /veh FAM26E (11764081_at) / RFU ISYNA1 (11749810_s_at) / Fold change /veh ISYNA1 (11749810_s_at) / RFU ACY1 (11761880_at) / Fold change /veh ACY1 (11761880_at) / RFU 11764098_at / Fold change /veh 11764098_at / RFU SAMD14 (11745864_x_at) / Fold change /veh SAMD14 (11745864_x_at) / RFU NPB (11741838_a_at) / Fold change /veh NPB (11741838_a_at) / RFU TMPRSS6 (11731388_a_at) / Fold change /veh TMPRSS6 (11731388_a_at) / RFU KRTAP10-2 (11738614_at) / Fold change /veh KRTAP10-2 (11738614_at) / RFU ARHGAP8 /// PRR5-ARHGAP8 (11727945_x_at) / Fold change /veh ARHGAP8 /// PRR5-ARHGAP8 (11727945_x_at) / RFU KRTAP5-7 /// NADSYN1 (11734609_at) / Fold change /veh KRTAP5-7 /// NADSYN1 (11734609_at) / RFU RASL12 (11751679_a_at) / Fold change /veh RASL12 (11751679_a_at) / RFU CDKN2B (11736163_a_at) / Fold change /veh CDKN2B (11736163_a_at) / RFU PRF1 (11729649_at) / Fold change /veh PRF1 (11729649_at) / RFU, ZNF638 /// ZNF638-IT1 / Fold change vs veh, ZNF638 /// ZNF638-IT1 / RFU, PANK3 / Fold change vs veh, PANK3 / RFU, SH3YL1 / Fold change vs veh, SH3YL1 / RFU, ZEB2 / Fold change vs veh, ZEB2 / RFU, NRIP1 / Fold change vs veh, NRIP1 / RFU, PTTG1IP / Fold change vs veh, PTTG1IP / RFU, CAPN2 / Fold change vs veh, CAPN2 / RFU, MED14 / Fold change vs veh, MED14 / RFU, SNORA58 / Fold change vs veh, SNORA58 / RFU, C1orf63 / Fold change vs veh, C1orf63 / RFU, LRRFIP1 / Fold change vs veh, LRRFIP1 / RFU, NDUFAF7 / Fold change vs veh, NDUFAF7 / RFU, SLC12A2 / Fold change vs veh, SLC12A2 / RFU, IBTK / Fold change vs veh, IBTK / RFU, ESF1 / Fold change vs veh, ESF1 / Fold change vs veh, TMEM50B / RFU, TAOK1 / Fold change vs veh, TAOK1 / RFU, ACBD3 / Fold change vs veh, ACBD3 / RFU, TMA16 / Fold change vs veh, TMA16 / RFU, RWDD3 / Fold change vs veh, RWDD3 / RFU, BCAT1 / Fold change vs veh, BCAT1 / RFU, EDEM3 / Fold change vs veh, EDEM3 / RFU, TMEM33 / Fold change vs veh, TMEM33 / RFU, WDR75 / Fold change vs veh, WDR75 / RFU, AHCTF1 / Fold change vs veh, AHCTF1 / RFU, TFRC / Fold change vs veh, TFRC / RFU, ZDHHC17 / Fold change vs veh, ZDHHC17 / RFU, NOM1 / Fold change vs veh, NOM1 / RFU, ARL8B / Fold change vs veh, ARL8B / RFU, ZBTB11 / Fold change vs veh, ZBTB11 / RFU, TAMM41 / Fold change vs veh, TAMM41 / RFU, KIAA1704 /// LOC100996395 / Fold change vs veh, KIAA1704 /// LOC100996395 / RFU, ING1 / Fold change vs veh, ING1 / RFU, TRMT61B / Fold change vs veh, TRMT61B / RFU, FUBP3 / Fold change vs veh, FUBP3 / RFU, TP53 / Fold change vs veh, TP53 / RFU, TNKS2 / Fold change vs veh, TNKS2 / RFU, ZFP14 / Fold change vs veh, ZFP14 / RFU, ACTR2 / Fold change vs veh, ACTR2 / RFU, PPP3R1 / Fold change vs veh, PPP3R1 / RFU, PIK3R1 / Fold change vs veh, PIK3R1 / RFU, HNRNPA1 / Fold change vs veh, HNRNPA1 / RFU, RNF170 / Fold change vs veh, RNF170 / RFU, ZNF28 / Fold change vs veh, ZNF28 / RFU, RNGTT / Fold change vs veh, RNGTT / RFU, OGT / Fold change vs veh, OGT / RFU, BRD1 / Fold change vs veh, BRD1 / RFU, MARS / Fold change vs veh, MARS / RFU, ZNF655 / Fold change vs veh, ZNF655 / RFU, FAHD1 / Fold change vs veh, FAHD1 / RFU, BDP1 / Fold change vs veh, BDP1 / RFU, LRRCC1 / Fold change vs veh, LRRCC1 / RFU, ARID1A / Fold change vs veh, ARID1A / RFU, ZNF146 / Fold change vs veh, ZNF146 / RFU, ZNF330 / Fold change vs veh, ZNF330 / RFU, GPN3 / Fold change vs veh, GPN3 / RFU, C9orf123 / Fold change vs veh, C9orf123 / RFU, N4BP2L2 / Fold change vs veh, N4BP2L2 / RFU, ARFIP1 / Fold change vs veh, ARFIP1 / RFU, FAM179B / Fold change vs veh, FAM179B / RFU, BCL10 / Fold change vs veh, BCL10 / RFU, UHRF1BP1L / Fold change vs veh, UHRF1BP1L / RFU, BET1 / Fold change vs veh, BET1 / RFU, CNOT2 / Fold change vs veh, CNOT2 / RFU, ZNF268 / Fold change vs veh, ZNF268 / Fold change vs veh, ZNF507 / RFU, DGCR2 / Fold change vs veh, DGCR2 / RFU, WDSUB1 / Fold change vs veh, WDSUB1 / Fold change vs veh, HSP90B1 /// MIR3652 / RFU, ADSS / Fold change vs veh, ADSS / RFU, GK / Fold change vs veh, GK / RFU, ZNF148 / Fold change vs veh, ZNF148 / RFU, TAF9 / Fold change vs veh, TAF9 / RFU, SLC1A5 / Fold change vs veh, SLC1A5 / RFU, SLMO2 / Fold change vs veh, SLMO2 / RFU, ABCC4 / Fold change vs veh, ABCC4 / RFU, LOC101060439 /// RAP1B / Fold change vs veh, LOC101060439 /// RAP1B / RFU, RFX7 / Fold change vs veh, RFX7 / RFU, GTPBP10 / Fold change vs veh, GTPBP10 / RFU, CNEP1R1 / Fold change vs veh, CNEP1R1 / RFU, BIVM-ERCC5 /// ERCC5 / Fold change vs veh, BIVM-ERCC5 /// ERCC5 / RFU, ILF3 / Fold change vs veh, ILF3 / RFU 11762660_at / Fold change /veh 11762660_at / RFU VCAN (11757783_s_at) / Fold change /veh VCAN (11757783_s_at) / RFU DDX43 (11728927_at) / Fold change /veh DDX43 (11728927_at) / RFU KRT8 (11758188_x_at) / Fold change /veh KRT8 (11758188_x_at) / RFU NKD1 (11759106_at) / Fold change /veh NKD1 (11759106_at) / RFU SRD5A1 (11742802_a_at) / Fold change /veh SRD5A1 (11742802_a_at) / RFU TPSAB1 /// TPSB2 (11721975_s_at) / Fold change /veh TPSAB1 /// TPSB2 (11721975_s_at) / RFU GSTM3 (11746129_a_at) / Fold change /veh GSTM3 (11746129_a_at) / RFU IL23R (11737362_x_at) / Fold change /veh IL23R (11737362_x_at) / RFU TMEM51 (11727254_a_at) / Fold change /veh TMEM51 (11727254_a_at) / RFU PIWIL2 (11732686_x_at) / Fold change /veh PIWIL2 (11732686_x_at) / RFU ORM1 (11744905_x_at) / Fold change /veh ORM1 (11744905_x_at) / RFU CCDC152 (11743942_at) / Fold change /veh CCDC152 (11743942_at) / RFU ECM1 (11717891_a_at) / Fold change /veh ECM1 (11717891_a_at) / RFU IL23R (11748794_a_at) / Fold change /veh IL23R (11748794_a_at) / RFU TNFAIP8L3 (11732012_x_at) / Fold change /veh TNFAIP8L3 (11732012_x_at) / RFU MBOAT4 (11741988_at) / Fold change /veh MBOAT4 (11741988_at) / RFU 11764193_at / Fold change /veh 11764193_at / RFU TMEM53 (11763286_at) / Fold change /veh TMEM53 (11763286_at) / RFU MAGEB2 (11727129_at) / Fold change /veh MAGEB2 (11727129_at) / RFU TMEM200A (11744735_a_at) / Fold change /veh TMEM200A (11744735_a_at) / RFU CCDC152 (11751479_a_at) / Fold change /veh CCDC152 (11751479_a_at) / RFU FAM211A (11726209_a_at) / Fold change /veh FAM211A (11726209_a_at) / RFU RGS16 (11746705_a_at) / Fold change /veh RGS16 (11746705_a_at) / RFU VCAN (11755009_s_at) / Fold change /veh VCAN (11755009_s_at) / RFU RHOB (11743442_s_at) / Fold change /veh RHOB (11743442_s_at) / RFU RGS16 (11720943_a_at) / Fold change /veh RGS16 (11720943_a_at) / RFU RGS16 (11720944_at) / Fold change /veh RGS16 (11720944_at) / RFU, VPS4B / Fold change vs veh, VPS4B / RFU, CREB1 / Fold change vs veh, CREB1 / RFU, DNAJC13 / Fold change vs veh, DNAJC13 / RFU, GNAQ / Fold change vs veh, GNAQ / RFU, CDK5R1 / Fold change vs veh, CDK5R1 / RFU, ZRANB3 / Fold change vs veh, ZRANB3 / RFU, CUL4A / Fold change vs veh, CUL4A / RFU, CCNY / Fold change vs veh, CCNY / RFU, UFL1 / Fold change vs veh, UFL1 / RFU, COG3 / Fold change vs veh, COG3 / RFU, DIAPH2 / Fold change vs veh, DIAPH2 / RFU, SKA2 / Fold change vs veh, SKA2 / RFU, AFF3 / Fold change vs veh, AFF3 / RFU, LMF1 / Fold change vs veh, LMF1 / RFU, IPO11 / Fold change vs veh, IPO11 / RFU, DFFB / Fold change vs veh, DFFB / RFU, FOXP1 / Fold change vs veh, FOXP1 / RFU, CARD8 / Fold change vs veh, CARD8 / RFU, STRN3 / Fold change vs veh, STRN3 / RFU, ADK / Fold change vs veh, ADK / RFU, RASSF2 / Fold change vs veh, RASSF2 / RFU, WIPF1 / Fold change vs veh, WIPF1 / RFU, LARP1B / Fold change vs veh, LARP1B / RFU, RASA1 / Fold change vs veh, RASA1 / RFU, RB1 / Fold change vs veh, RB1 / RFU, PPFIA1 / Fold change vs veh, PPFIA1 / RFU, MAT2A / Fold change vs veh, MAT2A / RFU, CCT5 / Fold change vs veh, CCT5 / RFU, WDR92 / Fold change vs veh, WDR92 / RFU, CUX1 / Fold change vs veh, CUX1 / RFU, TTC7A / Fold change vs veh, TTC7A / RFU, TMEM135 / Fold change vs veh, TMEM135 / RFU, DEPTOR / Fold change vs veh, DEPTOR / RFU, CPM / Fold change vs veh, CPM / RFU, DNAJB6 / Fold change vs veh, DNAJB6 / RFU, CACNA2D3 / Fold change vs veh, CACNA2D3 / RFU, DTX4 / Fold change vs veh, DTX4 / RFU, TFCP2 / Fold change vs veh, TFCP2 / RFU, GMCL1 /// GMCL1P1 / Fold change vs veh, GMCL1 /// GMCL1P1 / RFU, AEBP2 / Fold change vs veh, AEBP2 / RFU, SNHG1 /// SNORD22 /// SNORD25 /// SNORD26 /// SNORD27 /// SNORD28 /// SNORD29 /// SNORD31 / Fold change vs veh, SNHG1 /// SNORD22 /// SNORD25 /// SNORD26 /// SNORD27 /// SNORD28 /// SNORD29 /// SNORD31 / Fold change (Aza/veh), C12orf56 (ProbeSet 11735607_a_at) / Fold change (ACY-1035/veh), C12orf56 (ProbeSet 11735607_a_at) / Fold change (Aza/veh), FGFR1OP (ProbeSet 11751329_s_at) / Fold change (ACY-1035/veh), FGFR1OP (ProbeSet 11751329_s_at) / Fold change (Aza/veh), VPS36 (ProbeSet 11739960_a_at) / Fold change (ACY-1035/veh), VPS36 (ProbeSet 11739960_a_at) / RFU SYPL1 (11715823_x_at) / Fold change /veh SYPL1 (11715823_x_at) / RFU IGFBP7 (11715501_s_at) / Fold change /veh IGFBP7 (11715501_s_at) / RFU REEP3 (11722064_at) / Fold change /veh REEP3 (11722064_at) / RFU IGLL1 (11728026_x_at) / Fold change /veh IGLL1 (11728026_x_at): dose or concentration left out as unconfirmed
Conditions: ProbeSet 11740781_a_at; LIST B

Nc1ccc(-c2cccs2)cc1NC(=O)c1ccc2c(c1)cc(C1CC1)n2CCN1CCOCC1 [ACY-1035]
RFU, ILF3: 238.85 RFU

— publication PMC5218480 (PLoS ONE, 2017)
